# Square brackets hold non-standard residues; d marks the D form. Peptide text beside a SMILES is read from it. * marks the point of attachment. Nle = CCCC[C@H](N)C(=O)O; Cbz = O=C(OCc1ccccc1)*
# Columns and labels:
# Notch-1 = Notch-1 cleavage in CaSki cells (Western blot N^TM, N^IC); type: cell-based, human; conditions: 0-5 μM, 24 h
# Protocol: The CaSki human cervical cancer cells were incubated for 24 h with various concentrations (0-5 μM) of the dual inhibitor z-Leu-Leu-Nle-CHO (Calbiochem) (FIG. 13A). The cells were then collected and assayed for Notch-1 and Notch-4 expression by Western blotting. Immunoblotting was performed using antibodies to the transmembrane portion of Notch-1 (N^TM) (Santa Cruz Biotechnology (Santa Cruz, Calif.)), or the intracellular portion of Notch-1 (N^IC) (Abcam, Inc. (Cambridge, Mass.)). Secondary anti-goat, anti-rnouse, anti-rabbit and anti-rat antibodies (IgG-HRP) were purchased from Vector Laboratories (Burlingame, Calif.), Santa Cruz Biotechnology and Amersham Biosciences. For Western blot analysis, equal amounts of protein extracted from each sample (20 μg) were loaded into pre-cast 7% NuPAGE Tris-acetate gels or 4-12% NuPAGE Bis-tris gels (Invitrogen). Proteins were separated by SDS-PAGE and transferred to polyvinylidene difluoride membranes (Bio-Rad, Hercules, Calif.) using Invitrogen's buffering system. The membranes were incubated with the indicated primary antibodies, washed, and visualized by incubation with horseradish peroxidase-conjugated secondary antibodies and chemiluminescent reagents (Roche Diagnostics Corporation, Indianapolis, Ind.).
# NOXA = experiment: Western blot of pro-survival and pro-apoptotic proteins in melanoma cells; type: cell-based, human; conditions: 10 μM
# Protocol: To assess the effect of z-Leu-Leu-Nle-CHO on pro-apoptotic proteins, RJ002L pulmonary metastases melanoma cells were grown in RPMI supplemented with 10% FBS. Highly proliferating cells (i.e., cells that had reached approximately 30% confluency) were exposed to z-Leu-Leu-Nle-CHO by replenishing the culture media with media containing z-Leu-Leu-Nle-CHO (10 μM) (experimental group) or media without z-Leu-Leu-Nle-CHO (control group) and the cells were incubated for a specified period of time prior to harvesting the cells for further analysis.
# Western blot analyses following z-Leu-Leu-Nle-CHO and control treatment of RJ002L melanoma cells were performed to determine the effect of z-Leu-Leu-Nle-CHO on pro-survival and pro-apoptotic proteins. Whole cell extracts were prepared and analyzed as described by Denning, M. F. et al., 1998, J Biol Chem 273: 29995-30002, 1998. The enriched mitochondria pellet and mitochondria-free cytosol of melanoma cells were prepared with the APO ALERT cell fraction kit (Clontech Laboratories, Inc. Palo Alto, Calif.) according to the manufacturer's instructions. For Western blot analysis, equal amounts of protein extracted from each sample (20-30 μg) were loaded into pre-cast 7% NuPAGE Tris-acetate gels or 4-12% NuPAGE Bis-tris gels (Invitrogen). Proteins were separated by SDS-PAGE and transferred to polyvinylidene difluoride membranes (Bio-Rad, Hercules, Calif.) using Invitrogen's buffering system. The indicated primary antibodies were incubated for indicated period of time, washed, and visualized by incubation with horseradish peroxidase-conjugated secondary antibodies and chemiluminescent reagents (Roche Diagnostics Corporation, Indianapolis, Ind.). Antibodies used were as follows: From Santa Cruz Biotechnology: Bcl-2 (SC-7382), BCl-xL (SC-634), Mcl-1 (SC-819), survivin (SC-10811), Bax (SC-493), Bak (SC-832), Bim (SC-11425), PUMA (SC-19187), p53 (SC-126), and GADD45 (SC-796); From Cell Signaling: Bid (#2002), and cleaved caspase 9 (9501); NOXA (OP180—Oncogene Research Products), Apaf-1 (559683-BD Bioscience), Smac/Diablo (IMG-248-Imgenex), cytochrome C (part of kit—Apo Alert™ cell fraction kit—Clontech Laboratories, Inc.—Palo Alto, Calif.), PARP (Pharmingen, San Diego, Calif.) and β-actin (Sigma Chemical Co., St. Louis, Mo.). Secondary antibodies anti-goat, anti-mouse, anti-rabbit and anti-rat (IgG-HRP) were purchased from Vector Laboratories (Burlingame, Calif.), Santa Cruz Biotechnology and Amersham Biosciences.
# To determine if p53 status influences induction of NOXA, NOXA induction in z-Leu-Leu-Nle-CHO-treated melanoma cell lines (10 μM) containing p53 mutations (i.e. C8161, SK-MeI-28, MUM2B) were examined using Western blot analysis as described above and compared to that of Western blot results from z-Leu-Leu-Nle-CHO-treated melanoma cell lines (10 μM) having wild-type p53 (RJ002L, SK-MeI-100). […] In contrast, C8161, which carries a R196Stop mutation in only one allele, has p53 expression similar to that observed in wild-type cell lines. […] NOXA induction occurred earlier in SK-MeI-100 cells than in the other tested cell lines (FIG. 2C). Apaf-1 levels were not increased in response to z-Leu-Leu-Nle-CHO (data not shown).
structure (smiles),measurement,setting,value
"CCCC[C@@H](C=O)NC(=O)[C@H](CC(C)C)NC(=O)[C@H](CC(C)C)NC(=O)OCc1ccccc1 [z-Leu-Leu-Nle-CHO, N-benzyloxycarbonyl-leucyl-leucyl-norleucinal] (Cbz-Leu-Leu-[Nle]-aldehyde)",cleaved and transmembrane Notch-1,Notch-1,dose-dependent reduction in cleaved Notch-1
same,induction of pro-apoptotic proteins,NOXA; RJ002L,"induced expression of Bak, Bim, and NOXA"
same,time course of NOXA induction,NOXA; RJ002L,detectable as early as 1 hr and was massive by 6-18 hrs
same,NOXA induction,"NOXA; all tested melanoma cell lines, regardless of p53 mutation status",induced NOXA in all tested melanoma cell lines
